The source of these data is article PMC7708434 (Biochimica et biophysica acta. General subjects, 2020).

Structures are written as SMILES.

Assay type in all cases: binding
Test [1] concerns the target T1, 4-hydroxy-tetrahydrodipicolinate reductase (VvDapB) (Vibrio vulnificus, UniProt Q8DEM0). The test can be described thus: X-ray crystal structure.
In test [2] the target is T2, 4-hydroxy-tetrahydrodipicolinate reductase (MtDapB) (Mycobacterium tuberculosis, UniProt P9WP23). The test can be described thus: X-ray crystal structure.
In test [3] the target is T2, 4-hydroxy-tetrahydrodipicolinate reductase (MtDapB). Put plainly: ITC. (In general: Isothermal titration calorimetry measures the heat released or taken up as one component is titrated into another.)
For test [4], the target named is T1, 4-hydroxy-tetrahydrodipicolinate reductase (VvDapB). Put plainly: ITC.

T1 sequence (Q8DEM0 whole entry): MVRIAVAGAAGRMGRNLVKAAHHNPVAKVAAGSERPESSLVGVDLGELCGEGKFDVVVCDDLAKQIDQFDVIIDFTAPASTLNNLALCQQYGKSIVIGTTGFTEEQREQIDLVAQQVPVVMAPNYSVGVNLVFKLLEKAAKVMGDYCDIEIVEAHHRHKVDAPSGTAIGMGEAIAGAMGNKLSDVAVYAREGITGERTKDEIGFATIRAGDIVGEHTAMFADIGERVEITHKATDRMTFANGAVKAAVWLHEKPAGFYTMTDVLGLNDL
T2 sequence (P9WP23 whole entry): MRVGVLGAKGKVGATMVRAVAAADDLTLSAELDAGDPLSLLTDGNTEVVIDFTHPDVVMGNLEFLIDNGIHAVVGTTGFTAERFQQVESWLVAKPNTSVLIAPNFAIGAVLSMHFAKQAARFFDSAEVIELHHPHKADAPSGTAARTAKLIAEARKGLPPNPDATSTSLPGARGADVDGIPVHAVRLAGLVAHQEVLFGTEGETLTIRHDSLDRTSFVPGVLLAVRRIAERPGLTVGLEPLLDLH

Consider `NC(=O)c1ccc[n+]([C@@H]2O[C@H](COP(=O)([O-])OP(=O)(O)OC[C@H]3O[C@@H](n4cnc5c(N)ncnc54)[C@H](O)[C@@H]3O)[C@@H](O)[C@H]2O)c1` [NAD+], for which the X-ray crystal structure result was “NADH was used for crystallization, in all cases we observed NAD^+ in the crystal structures” in test [1]; “apo MtDapB (PDB ID: 5TEK chain A) and NAD^+ bound MtDapB (PDB ID: 5UGV chain A) structures” in test [2].

By Kd is commonly meant the free concentration of one partner at which half of the binding sites on the other are occupied at equilibrium, for simple one-to-one binding. Read a high Kd as a looser complex. Take `NC(=O)C1=CN([C@@H]2O[C@H](COP(=O)(O)OP(=O)(O)OC[C@H]3O[C@@H](n4cnc5c(N)ncnc54)[C@H](O)[C@@H]3O)[C@@H](O)[C@H]2O)C=CC1` [NADH]: the Kd in test [3] came to 3.6 ± 0.4 µM; in test [4], 3.9 ± 1.2 µM.
